Laboratory results published in US4504492A, “Pharmaceutical amides, and preparation, formulations and use thereof” (Burroughs Wellcome Co., priority 1981, dated 1985).
Like-named read-outs stand apart in the source and are kept apart here.

Legend:
ACE and enkephalinase = details: specificity for ACE over enkephalinase; Swerts et al; cited from earlier work
`Enkephalinase` = target: T1, `Enkephalinase` (Mus musculus, UniProt Q61391); assay: Activity ex vivo: `enkephalinase` activity in lung and brain homogenates of mice dosed i.p. with test compound; details: for ED50: mouse, ip, 0.25 h; for Lung/Brain (ED50 ratio): ratio of apparent ED50 values for lung and brain, 15 min
T1 construct: The lung and brain (less cerebellum) were rapidly dissected, weighed and homogenised; from tissue; host or cells: mouse lung and brain (less cerebellum) homogenate
T1 sequence (Q61391 1-750): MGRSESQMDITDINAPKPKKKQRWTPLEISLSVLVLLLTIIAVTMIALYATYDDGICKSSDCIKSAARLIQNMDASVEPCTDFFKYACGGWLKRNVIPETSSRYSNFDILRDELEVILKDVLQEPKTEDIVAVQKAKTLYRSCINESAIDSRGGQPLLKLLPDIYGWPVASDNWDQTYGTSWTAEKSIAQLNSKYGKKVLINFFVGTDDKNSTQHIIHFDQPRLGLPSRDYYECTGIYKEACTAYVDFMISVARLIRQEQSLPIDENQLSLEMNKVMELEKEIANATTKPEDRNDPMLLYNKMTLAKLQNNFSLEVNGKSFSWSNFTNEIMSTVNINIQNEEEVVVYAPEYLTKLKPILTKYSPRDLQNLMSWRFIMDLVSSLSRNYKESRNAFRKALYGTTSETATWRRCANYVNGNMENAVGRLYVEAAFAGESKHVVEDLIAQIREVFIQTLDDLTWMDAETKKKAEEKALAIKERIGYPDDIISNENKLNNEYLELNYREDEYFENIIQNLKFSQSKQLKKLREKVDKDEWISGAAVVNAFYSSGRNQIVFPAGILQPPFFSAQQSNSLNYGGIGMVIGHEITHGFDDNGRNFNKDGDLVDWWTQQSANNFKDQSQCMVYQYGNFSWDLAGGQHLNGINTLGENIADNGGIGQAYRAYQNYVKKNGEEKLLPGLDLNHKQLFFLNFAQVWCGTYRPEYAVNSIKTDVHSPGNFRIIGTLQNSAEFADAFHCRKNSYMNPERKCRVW
Experimental: Mice were dosed i.p. with 0-30 mg/Kg of test compound suspended in 0.25% w/v celacol/0.85% w/v saline. The mice were killed 15 minutes after administration of the doses. The lung and brain (less cerebellum) were rapidly dissected, weighed and homogenised in 100 mM tris-HCl pH 7.4 buffer containing 1 uM Captopril to give a 9.1% W/V homogenate. `Enkephalinase` activity in the homogenate was measured by incubation at 37° C. with 100 μM [^3 H]-D-Tyr-D-Ala-L-Gly-L-Gly-L-Phe-L-leu for 10 minutes (lung) or 30 minutes (brain).

enkephalinase Al = target: T2, enkephalinase Al (Rattus norvegicus, UniProt P07861); assay: Enkephalinase-inhibiting activity in vitro (3H-TGG generation from 3H-leucine enkephalin by purified enkephalinase Al); assay type: biochemical; details: approximate, determined graphically; leucine enkephalin 5×10^-5 M, 30° C., 30 mins with enzyme; read-out: IC50 (concentration of test compound required for 50% inhibition of 3H-TGG generation)
T2 construct: from tissue; host or cells: rat striatum (membrane pellet, Triton X-100 solubilised, DEAE-cellulose and Sephacryl S-300)
T2 sequence (P07861 1-750): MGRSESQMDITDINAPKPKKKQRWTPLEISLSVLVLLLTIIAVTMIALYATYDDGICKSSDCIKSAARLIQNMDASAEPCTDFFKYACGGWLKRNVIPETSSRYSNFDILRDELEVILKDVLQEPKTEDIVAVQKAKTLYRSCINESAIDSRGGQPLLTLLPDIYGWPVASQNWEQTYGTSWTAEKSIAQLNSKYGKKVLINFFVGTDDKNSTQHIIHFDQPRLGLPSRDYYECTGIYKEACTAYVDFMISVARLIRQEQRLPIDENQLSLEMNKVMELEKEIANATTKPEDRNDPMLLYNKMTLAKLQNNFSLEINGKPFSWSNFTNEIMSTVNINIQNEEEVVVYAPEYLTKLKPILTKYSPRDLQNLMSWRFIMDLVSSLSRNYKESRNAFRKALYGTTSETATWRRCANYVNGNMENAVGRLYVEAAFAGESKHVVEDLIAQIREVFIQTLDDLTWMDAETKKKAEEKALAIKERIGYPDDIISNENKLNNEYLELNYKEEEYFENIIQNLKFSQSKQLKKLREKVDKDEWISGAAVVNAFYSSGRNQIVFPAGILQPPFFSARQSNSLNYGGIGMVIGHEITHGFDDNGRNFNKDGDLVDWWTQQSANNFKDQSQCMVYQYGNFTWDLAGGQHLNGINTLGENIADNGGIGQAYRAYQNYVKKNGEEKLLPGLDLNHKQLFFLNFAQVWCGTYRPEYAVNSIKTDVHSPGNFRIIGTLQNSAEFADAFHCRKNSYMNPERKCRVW
Experimental: The compounds were investigated for enkephalinase inhibiting activity using the following method.
Rats were killed by decapitation and the striata dissected out on ice. The pooled tissues were homogenised on ice-cold Tris/hydrochloric acid buffer (50 mM, pH 7.70, 30 ml per gram of tissue) and centrifuged (50,000 g, 15 mins). The resulting supernatent was discarded and the remaining pellet washed three times. The washed pellet was solubilised by resuspension in half the volume of buffer as before containing 1.0% (v/v) Triton X-100 and incubated at 37° C. for 45 mins. The suspension was then centrifuged at 100,000 g for 60 mins and the solubilised enzymes contained in the supernatant separated by DEAE-cellulose column chromatography. Enkephalinase Al was further purified by Sephacryl S.300 chromatograph.
Enkephalinase-inhibiting activity was estimated by the following procedure.
Separation of (a) unchanged ^3 H-leucine enkephalin and (b) ^3 H-Tyr-Gly-OH(^3 H-TGG), generated from (a) by enkephalinase Al in the incubation mixture was effected by thin layer chromatography (plastic silica gel plates of 0.1 mm layer thickness, solvent system ethyl acetate:propan-2-ol:5% (v/v) acetic acid, 2:2:1) using solutions of the cold compounds as carriers. After drying the materials were visualized with ninhydrin and appropriate areas of the plates cut out and placed in scintillation vials containing 50% methanol/0.1M hydrochloric acid to elute the ^3 H label. Bioflor reagent (10 ml) was then added and the radioactivity determined by liquid scintillation counting.

[1] = brain (less cerebellum) homogenate, 15 minutes after administration, read-out: Apparent ED50 Brain
[2] = lung homogenate, 15 minutes after administration, read-out: Apparent ED50 Lung

| ED50 (`Enkephalinase`; [1]) [µmol/kg] | ED50 (`Enkephalinase`; [2]) [µmol/kg] | Structure (SMILES) | IC50 (enkephalinase Al) [nM] | other results |
| --- | --- | --- | --- | --- |
|  |  | C[C@H](CS)C(=O)N1CCC[C@H]1C(=O)O [Captopril, 1-(D-3-mercapto-2-methylpropanoyl)-L-proline (S,S)] |  | concentration required to inhibit ACE by 50% lower than that required for the same inhibition of enkephalinase (ACE and enkephalinase): approximately 1000 fold |
| > 85.7 | 8.6 | CCOC(=O)[C@H](CC(C)C)NC(=O)C(Cc1ccccc1)C(=O)NO (stereo partly drawn) [Compound 4, Ethyl N-[(DL)-2-hydroxycarbamoyl)-3-phenylpropanoyl]-L-leucinate] |  | Lung/Brain (ED50 ratio) (`Enkephalinase`): > 10 |
| 14.6 | 6.1 | CC(C)C[C@H](NC(=O)C(Cc1ccccc1)C(=O)NO)C(=O)O (stereo partly drawn) [Compound 1, N-[2-(N-Hydroxycarbamoyl)-3-phenylpropanoyl]-L-leucine] | 19 | Lung/Brain (ED50 ratio) (`Enkephalinase`): 2.4 |
|  |  | CC(C)C[C@H](NC(=O)C(Cc1ccc(Br)cc1)C(=O)NO)C(=O)O (stereo partly shown) [Compound 10] | 60 |  |
| 3.92 | 0.69 | O=C(O)CNC(=O)C(CS)Cc1ccccc1 (racemic) [Thiorphan, (DL-3-mercapto-2-benzylpropanoyl)-glycine, reference compound] |  |  |
|  | > 26.5 | CC(C)C[C@H](NC(=O)C(Cc1ccccc1)C(=O)NO)C(=O)OC(C)(C)C (stereo partly drawn) [Compound 6, Tert-butyl N-[(DL)-2-hydroxycarbamoyl)-3-phenylpropanoyl]-L-leucinate] |  | Apparent ED50 Brain (`Enkephalinase`; brain (less cerebellum) homogenate, 15 minutes after administration): No inhibn. at 26.5 |
|  |  | CC(C)C[C@H](NC(=O)C(Cc1ccc([N+](=O)[O-])cc1)C(=O)NO)C(=O)O (stereo partly shown) [Compound 9] | 520 |  |
|  |  | COc1ccc(CC(C(=O)NO)C(=O)N[C@@H](CC(C)C)C(=O)O)cc1 (stereo partly drawn) [Compound 3, N-[2-(N-Hydroxycarbamoyl)-3-(4-methoxyphenyl)-propanoyl]-L-leucine] | 750 |  |
|  |  | CC(C)C[C@H](NC(=O)C(Cc1ccc(C(C)C)cc1)C(=O)NO)C(=O)O (stereo partly drawn) [Compound 2, N-[2-(N-Hydroxycarbamoyl)-3-(4-isopropylphenyl)propanoyl]-L-leucine] | 120 |  |
